≈ marks a conversion by molar mass, not a printed value.
Key:
human C3b = biological target: T1, human C3b (Homo sapiens, UniProt P01024); assay: SPR binding affinity and kinetics with C3b; settings: 25° C., 1:1 Langmuir model; read-out: ka, association constant
T1 construct: purchased Complement Technology, Inc., Tyler, Tex

[1] = Lys cleavage fragments in NHP plasma after s.c. injection (UPLC-ESI-MS); type: in vivo, cynomolgus monkeys; settings: 4 h after the s.c. injection of Cp40-KKK, one monkey
[2] = system: classical pathway activation (C3b deposition); assay: Classical pathway activation ELISA (C3b deposition) with or without rabbit vitreous; type: biochemical, human; settings: in the absence of vitreous
Method: An alternative explanation to the one presented above is that the vitreous contains additional unidentified factors that associate with the Cp40-KKK analog. To investigate whether an unidentified vitreous factor impacts the complement inhibitory activity of lysine containing compounds, complement activation assays were performed using vitreous samples. Briefly, human plasma was incubated with OVA-anti-OVA immune-complexes in the presence of serial dilutions of the Cp40-based analogs mixed with rabbit vitreous. Levels of classical pathway activation (C3b deposition) were determined by ELISA using a polyclonal anti-human C3 antibody conjugated with HRP (MP Biomedicals, Solon, Ohio) (FIG. 20).

[3] = Solubility of Cp40-based analogs in PBS; settings: for pH of the peptide solution in PBS: at the solubility concentration; for solubility: PBS, pH 7.4, Conc. (solubility in PBS), PBS (pH 7.4)
[4] = Pharmacokinetics after single i.v. injection; set-up: species or system cynomolgus monkeys; settings: cynomolgus monkey, in vivo, iv
Method: In vivo pharmacokinetic studies were conducted, in which cynomolgus monkeys were administered single i.v. injections of mPEG(1k)-Cp40, mPEG(3k)-Cp40, Cp40-KK, or Cp40-KKK.

[5] = Residence time in the vitreous after intravitreal injection (WES / SPR competition assay); type: in vivo, cynomolgus monkeys; settings: single i.v.t. injection 0.5 mg; days 14-90
Method: To determine the residence time of mPEG(3k)-Cp40, mPEG(1k)-Cp40, Cp40-KK, and Cp40-KKK in the vitreous of cynomolgus macaques, these Cp40-based analogs were administered intravitreally (i.v.t.) to the animals after induction of light ketamine anesthesia (10-15 mg/kg, by intramuscular injection (i.m.)) and dilation of the pupils with tropicamide/phenylephrine ophthalmic solution (see Table 6 for study design).
For i.v.t. injection, the cynomolgus monkeys were anesthetized with a combination of ketamine (15-25 mg/kg, i.m.) and xylazine (2 mg/kg, i.m.) and the eye was cleaned with povidone-iodine solution. After application of oxybuprocaine hydrochloride solution (Benoxil® ophthalmic solution 0.4%) to the cornea as a local anesthetic, the Cp40-based analogs were administered to the animals by i.v.t. injection into either the right (G1, G3) or left (G2, G4) eye of each animal. Immediately following each injection, a single topical dose of 0.5% levofloxacin was administered. After i.v.t. injection of mPEG(3k)-Cp40, mPEG(1k)-Cp40, Cp40-KK, and Cp40-KKK, vitreous fluid samples (about 50 μL each) were withdrawn from Cp40-based analog-treated eyes on days 14, 28, 42, (G1, G2, G3, G4), 56, 73, 90 (G1, G2) (this was done either three times or six times). Samples were collected on ice and stored in a deep freezer (−79.3 to −68.5° C.) until further analysis. On day 73 and 90, about 100 μL of vitreous fluid from G1 and G2 were withdrawn. Presence and concentration of the Cp40-based analogs was determined using either the simple western technology (WES, ProteinSimple, San Jose, Calif.), or surface plasmon resonance (SPR)-based real-time measurement of binding kinetics on a Cp40-KKK immobilized chip (see detailed methods below). Similar results with regard to the intravitreal residence time and concentration levels of the test compounds were obtained regardless of the quantification method selected.
To quantify the levels of all test compounds in vitreous samples collected at different time points following i.v.t. injection (see FIG. 15), WES analysis was performed on a WES instrument (ProteinSimple, San Jose, Calif.) using a 2 to 40 kDa Separation Module and Anti-Rabbit Detection Module according to the manufacturers' instructions. In brief, undiluted eye vitreous samples were mixed with a Fluorescent Master Mix and heated at 95° C. for 5 min. The samples, blocking reagent, primary antibodies (in house developed anti-Cp40; 1:1000 in blocking reagent), HRP-conjugated secondary antibody (anti-rabbit IgG) and chemiluminescent substrate were pipetted into the plate (part of Separation Module). The used instrument settings were: stacking and separation at 375 V for 27 min; blocking reagent for 30 min, primary and secondary antibody both for 30 min; Luminol/peroxide chemiluminescence detection for ˜15 min (exposures of 5, 15, 30, 60, 120, 240, and 480 s). The resulting electropherograms were evaluated using the Compass software (ProteinSimple, San Jose, Calif.). The following criteria were used to discriminate low peptide signals from background: The peak signal-to-noise (S/N) ratio given by the software must be ≥10, and the peak height/baseline ratio (calculated manually from the peak height and baseline values given by the software) must be equal to or greater than 3. A five-point standard curve of known concentrations (100-2,000 nM) of peptide spiked in rabbit vitreous was used to calculate peptide concentration in the vitreous samples using the Compass software (Compass Software Inc., Atlanta, Ga.). […] Shown in FIG. 15 is a representative standard curve generated using the WES system and bands obtained upon running pre-determined amounts of purified peptide spiked into rabbit vitreous samples.
To corroborate the WES-based measurements for all test compounds, an SPR-based competition assay was developed for detecting Cp40 and Cp40 analogs in biological samples. […] The samples were heated at 95° C. for 5 min. […]

physchem = settings: pH 7.4, Conc. (solubility in PBS)
[6] = Pharmacokinetics after single i.m. injection; settings: cynomolgus monkey, in vivo, im, 25 mg/kg
[7] = Pharmacokinetics in NHP plasma after single s.c. injection; settings: 2 mg/kg, NHP plasma, two animals
[8] = single s.c. 2 mg/kg, listed as Cp40-KK (SUM)

T1 sequence (P01024 23-667 limits assumed): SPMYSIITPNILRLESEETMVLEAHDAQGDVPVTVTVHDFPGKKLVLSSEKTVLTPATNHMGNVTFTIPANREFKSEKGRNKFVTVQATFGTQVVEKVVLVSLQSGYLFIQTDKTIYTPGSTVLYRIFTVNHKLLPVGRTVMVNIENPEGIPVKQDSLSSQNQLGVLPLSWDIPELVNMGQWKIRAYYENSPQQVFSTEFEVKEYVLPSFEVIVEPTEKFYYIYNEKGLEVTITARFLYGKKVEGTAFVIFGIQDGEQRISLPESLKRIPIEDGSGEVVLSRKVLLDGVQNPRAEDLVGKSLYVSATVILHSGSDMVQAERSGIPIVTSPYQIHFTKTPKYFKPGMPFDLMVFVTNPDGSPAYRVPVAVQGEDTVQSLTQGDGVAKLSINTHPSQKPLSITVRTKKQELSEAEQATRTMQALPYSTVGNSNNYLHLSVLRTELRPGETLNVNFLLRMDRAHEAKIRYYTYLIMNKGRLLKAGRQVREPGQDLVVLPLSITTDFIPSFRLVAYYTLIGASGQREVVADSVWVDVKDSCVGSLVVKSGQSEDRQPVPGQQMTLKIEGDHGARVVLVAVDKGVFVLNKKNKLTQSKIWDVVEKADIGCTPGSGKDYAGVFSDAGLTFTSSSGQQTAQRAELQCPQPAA
T1 sequence (P01024 749-1663 partner limits assumed): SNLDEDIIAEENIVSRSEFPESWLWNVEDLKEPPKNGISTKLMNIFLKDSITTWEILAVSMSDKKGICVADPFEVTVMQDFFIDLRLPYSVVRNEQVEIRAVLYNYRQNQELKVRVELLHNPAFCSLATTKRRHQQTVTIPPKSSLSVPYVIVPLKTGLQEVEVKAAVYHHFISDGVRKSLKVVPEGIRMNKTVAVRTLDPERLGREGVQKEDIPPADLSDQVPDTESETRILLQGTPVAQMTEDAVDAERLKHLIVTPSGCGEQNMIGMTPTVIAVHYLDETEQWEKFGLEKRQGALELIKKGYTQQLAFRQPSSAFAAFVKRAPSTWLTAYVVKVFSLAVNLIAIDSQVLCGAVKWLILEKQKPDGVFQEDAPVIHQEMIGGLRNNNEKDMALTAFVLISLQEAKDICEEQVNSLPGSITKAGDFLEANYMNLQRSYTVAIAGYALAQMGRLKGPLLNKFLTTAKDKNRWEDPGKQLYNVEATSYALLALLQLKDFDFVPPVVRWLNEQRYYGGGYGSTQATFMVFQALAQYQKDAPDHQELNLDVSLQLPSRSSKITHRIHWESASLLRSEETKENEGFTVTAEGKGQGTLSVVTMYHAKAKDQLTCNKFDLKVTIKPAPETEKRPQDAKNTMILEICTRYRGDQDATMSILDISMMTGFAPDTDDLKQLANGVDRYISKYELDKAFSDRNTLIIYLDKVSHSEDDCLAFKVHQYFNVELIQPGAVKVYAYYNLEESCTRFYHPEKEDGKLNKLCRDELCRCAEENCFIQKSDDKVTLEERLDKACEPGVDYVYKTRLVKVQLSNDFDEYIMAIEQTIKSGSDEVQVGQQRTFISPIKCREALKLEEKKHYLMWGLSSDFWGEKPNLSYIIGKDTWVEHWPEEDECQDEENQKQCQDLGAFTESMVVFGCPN

With CC[C@H](C)[C@H](NC(=O)[C@H](N)Cc1ccc(O)cc1)C(=O)N[C@H]1CSSC[C@@H](C(=O)N(C)[C@H](C(=O)N[C@@H](CCCCN)C(N)=O)[C@@H](C)CC)NC(=O)[C@H](CCCNC(=N)N)NC(=O)[C@H](Cc2c[nH]cn2)NC(=O)[C@H](C)NC(=O)CN(C)C(=O)[C@H](Cc2c[nH]c3ccccc23)NC(=O)[C@H](CC(=O)O)NC(=O)[C@H](CCC(N)=O)NC(=O)[C@H](Cc2cn(C)c3ccccc23)NC(=O)[C@H](C(C)C)NC1=O [Cp40-K, DTyr-Ile-[Cys-Val-Trp(Me)-Gln-Asn-Trp-Sar-Ala-His-Arg-Cys]-mIle-Lys-NH2] the kon (human C3b) was 1.98e+06 M⁻¹ s⁻¹, the “Cp40-K detectable in plasma” value [1] was 5 µM and the “complement classical pathway inhibitory activity” value [2] was “inhibitory activity in a dose-dependent manner”. The “pH of the peptide solution in PBS” value [3] was 7.5.

For CC[C@H](C)[C@H](NC(=O)[C@H](N)Cc1ccc(O)cc1)C(=O)N[C@H]1CSSC[C@@H](C(=O)N(C)[C@H](C(=O)N[C@@H](CCCCN)C(=O)N[C@@H](CCCCN)C(N)=O)[C@@H](C)CC)NC(=O)[C@H](CCCNC(=N)N)NC(=O)[C@H](Cc2c[nH]cn2)NC(=O)[C@H](C)NC(=O)CN(C)C(=O)[C@H](Cc2c[nH]c3ccccc23)NC(=O)[C@H](CC(=O)O)NC(=O)[C@H](CCC(N)=O)NC(=O)[C@H](Cc2cn(C)c3ccccc23)NC(=O)[C@H](C(C)C)NC1=O [Cp40-KK, DTyr-Ile-[Cys-Val-Trp(Me)-Gln-Asn-Trp-Sar-Ala-His-Arg-Cys]-mIle-Lys-Lys-NH2], the kon (human C3b) was 3.94e+06 M⁻¹ s⁻¹, the “Lys cleavage in plasma upon i.v. injection” value [4] was “metabolized to minimal amounts of Cp40-K” and the half-life ([4]; single i.v. injection 2 mg/kg) was 49.2 h. The “detection in the vitreous at time points post-injection” value [5] was “no longer detected on day 90”, the “complement classical pathway inhibitory activity” value [2] was “inhibitory activity in a dose-dependent manner” and the solubility (physchem) was > 245 mg/mL. The half-life [6] was ~192 h, the AUC(0-t) ([7]; male, cynomolgus monkey, plasma, sc, AUC0-t (0-120 h), single s.c. 2 mg/kg) was 329 µM·h and the AUC(0-inf) ([7]; male, cynomolgus monkey, plasma, sc, AUCinf, single s.c. 2 mg/kg) was 597 µM·h. It also gave a Cmax ([7]; male, cynomolgus monkey, plasma, sc, Cmax, single s.c. 2 mg/kg) of 12.9 µM, a half-life ([7]; male, cynomolgus monkey, plasma, sc, t1/2, single s.c. 2 mg/kg) of 145 h and a Tmax ([7]; male, cynomolgus monkey, plasma, sc, tmax, single s.c. 2 mg/kg) of 1 h. The t1/2 ([7]; single s.c. 2 mg/kg) was 276 h, the “AUC0-t (0-120 h)” value [7, 8] was 257 µM·h and the AUCinf [7, 8] was 755 µM·h. The Cmax [7, 8] was 9.26 µM.

In the case of CC[C@H](C)[C@H](NC(=O)[C@@H](Cc1ccc(O)cc1)NC(=O)CCOCCOCCOCCOCCOCCOCCOCCOCCOCCOCCOCCOC)C(=O)N[C@H]1CSSC[C@@H](C(=O)N(C)[C@H](C(N)=O)[C@@H](C)CC)NC(=O)[C@H](CCCNC(=N)N)NC(=O)[C@H](Cc2c[nH]cn2)NC(=O)[C@H](C)NC(=O)CN(C)C(=O)[C@H](Cc2c[nH]c3ccccc23)NC(=O)[C@H](CC(=O)O)NC(=O)[C@H](CCC(N)=O)NC(=O)[C@H](Cc2cn(C)c3ccccc23)NC(=O)[C@H](C(C)C)NC1=O [mPEG(528)-Cp40], the kon (human C3b) is reported as 1e+06 M⁻¹ s⁻¹ and the solubility [3] is reported as 2.3 mg/mL (≈ 0.975 mM).

For CC[C@H](C)[C@H](NC(=O)[C@@H](Cc1ccc(O)cc1)NC(=O)CCOCCOCCOCCOCCOCCOCCOCCOCCOCCOCCOCCOCCOCCOCCOCCOCCOCCOCCOCCOCCOCCOCCOCCOC)C(=O)N[C@H]1CSSC[C@@H](C(=O)N(C)[C@H](C(N)=O)[C@@H](C)CC)NC(=O)[C@H](CCCNC(=N)N)NC(=O)[C@H](Cc2c[nH]cn2)NC(=O)[C@H](C)NC(=O)CN(C)C(=O)[C@H](Cc2c[nH]c3ccccc23)NC(=O)[C@H](CC(=O)O)NC(=O)[C@H](CCC(N)=O)NC(=O)[C@H](Cc2cn(C)c3ccccc23)NC(=O)[C@H](C(C)C)NC1=O [mPEG(1056)-Cp40], the kon (human C3b) was 720000 M⁻¹ s⁻¹ and the solubility [3] was 137 mg/mL (≈ 47.4 mM).

In the case of “mPEG(1k)-Cp40: N-terminus of Cp40 coupled to polydisperse PEG chain of 1 kDa via amide coupling”, the AUC0-120 h [4] is reported as 304.4 to 312 µM·h and the “detection in the vitreous at time points post-injection” value [5] is reported as “detected at day 14 post injection but not in later time points”.

In the case of “mPEG(2k)-Cp40: N-terminus of Cp40 coupled to polydisperse PEG chain of 2 kDa via amide coupling”, the “pH of the peptide solution in PBS” value [3] is reported as 7.5.

— patent US10800812B2, “Compstatin analogs with increased solubility and improved pharmacokinetic properties” (The Trustees of the University of Pennsylvania, priority 2018, dated 2020)
